Reference: patent publication US5849753A, “Pyridyl imidazole derivatives and processes for the preparation thereof” (Korea Research Institute of Chemical Technology, priority 1994, dated 1998)

System: angiotensin II receptor
Experiment: Angiotensin II Receptor Binding Assay ([3H] angiotensin II binding inhibition)
Details: [3H] angiotensin II ligand; 60 minutes, 25° C.; test concentration not given
Outline: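 Rat membranes (SD adrenal cortex or medulla, Wistar liver) in 50 mM Tris pH 7.2, 5 mM MgCl2, 0.25% BSA were incubated with [3H]angiotensin II and test compound at graded concentrations for 60 min at 25 °C. Bound radioactivity was collected by GF/C filtration and scintillation counting, and percent binding inhibition was calculated versus untreated and blank.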

Structure (SMILES): CCCCc1nc2cc(-c3ccccn3)c(C(OC)OC)nc2n1Cc1ccc(-c2ccccc2-c2nnn[nH]2)cc1 [Example 8, 2-butyl-5-dimethoxymethyl-6-(pyridin-2-yl)-3-[2'-(1H-tetrazol-5-yl)-biphenyl-4-ylmethyl]-3H-imidazo[4,5-b]pyridine]
- Binding Inhibition(%): 93.4%
